In patent publication US20260297129A1, “PEPTIDES AS SELECTIVE IL-23 RECEPTOR INHIBITORS” (SANOFI, priority 2023, published 2026):
≈ marks a conversion by molar mass, not a printed value. Read-outs that look alike come from different tables or passages of the source. Numbered stars: 1 amine (or outer) side, 2 acyl side, 3 side chain; on linkers, the order of the positions; unused ones are H or OH. Bridge positions count the residues as written; N and C are the ends. Square brackets hold non-standard residues; d marks the D form. Peptide text beside a SMILES is read from it. * marks the point of attachment. Lys(Me,(CH2)4NMe(CH2)5CO) = CN(CCCCCC(=O)[*:3])CCCCN(C)CCCC[C@H](N[*:1])C(=O)[*:2]; Lys(Me,(CH2)4NMe(CH2)4CO) = CN(CCCCC(=O)[*:3])CCCCN(C)CCCC[C@H](N[*:1])C(=O)[*:2]; Trp(7-Me) = Cc1cccc2c(C[C@H](N)C(=O)O)c[nH]c12; Trp(1-Me) = Cn1cc(C[C@H](N)C(=O)O)c2ccccc21; αMeLys(Me2) = CN(C)CCCC[C@](C)(N)C(=O)O; 2Nal = N[C@@H](Cc1ccc2ccccc2c1)C(=O)O; 3Pal = N[C@@H](Cc1cccnc1)C(=O)O; Aun = NCCCCCCCCCCC(=O)O; Thp = NC1(C(=O)O)CCOCC1; Me2NCH2CH2 = CN(C)CC*; Aib = CC(C)(N)C(=O)O; Sar = CNCC(=O)O

What was measured:
[1] = Chemical stability (relative purity loss) of peptide compounds in buffer formulations (Table 6); type: physicochemical; conditions: 2° C. and 37° C.
Method: Purity of a peptide batch was determined through UHPLC/MS method A prior to chemical stability measurement.
For stability assessment, the target concentration was 0.5 mg pure compound/ml. Therefore, solutions from solid samples were prepared in a buffer system at a concentration of 0.5 mg/mL compound. The solid samples were obtained by drying down aliquots of a freshly prepared acetonitrile stock solution using a THERMO SPEEDVAC vacuum centrifuge. The dry down time was 3 hours.
The following buffer systems were applied: • Solubility buffer system A): 50 mM HCl pH 1.2+Acetonitrile (3:1). • Solubility buffer system B): 50 mM phosphate buffer pH 6.5+Acetonitrile (3:1). • Solubility buffer system C): 50 mM phosphate buffer pH 7.4+Acetonitrile (3:1). • Prepared solutions were stored for 24 hours at 2° C. and 37° C.
After this time course, the samples were centrifuged for 15 min at 2500 RCF to create a 1:5 dilution of the supernatant. Then 2 μl of the dilution were analyzed with UHPLC-UV applying method A.
The chemical stability was rated through the relative loss of purity calculated by the equation: […]

[2] = Protease stability in simulated gastric fluids (FaSSGF) (Table 7); type: in vitro ADME; conditions: fassgf with pepsin, 60 min, 37° C., read-out: Remaining percentage of peptide compound, FaSSGF 60 (min)
How it was run: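 Peptides at 1 μM final were incubated at 37 °C in simulated gastric fluid with pepsin (320 mg per 100 mL SGF concentrate). Samples were quenched with ethanol (0.1% HCOOH) at 0, 60, 120 and 240 min and analysed by LC-MS/MS. Percent remaining is the peak area relative to T0 (100%).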

[3] = Solubility of peptide compounds in buffer formulations (Table 5); type: physicochemical; conditions: target 1 mg/ml
How it was run: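 Peptide solids, dried from DMSO stock, were taken up at 1 mg/mL in 50 mM HCl pH 1.2, or 50 mM phosphate pH 6.5 or pH 7.4. After 2 h gentle agitation and filtration (0.45 μm), solubility was determined by UHPLC-UV peak area against a DMSO standard of known concentration.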

[4] = tested on: IL-23 induced STAT3 signaling (IL-23 receptor) in HEK-Blue IL-23 cells; experiment: Inhibition of IL-23 induced STAT3 signaling in HEK-Blue IL-23 cells, SEAP reporter (Table 9); type: cell-based; conditions: human IL23 0.25 ng/ml, overnight, read-out: Inhibition of IL-23 induced pSTAT3 (IC50 nM)
How it was run: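 HEK-Blue IL-23 reporter cells (10,000/well) pre-incubated 60 min at 37 °C with serially diluted peptides, then stimulated overnight with human IL-23 at 0.25 ng/ml final. SEAP in supernatant read by QUANTI-Blue, 45 min room temperature, OD 620–655 nm; dose-response curve fitting.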

[5] = Protease stability in simulated intestinal fluids (FaSSIF) (Table 7); type: in vitro ADME; conditions: fassif with pancreatin, 37° C.; for remaining at 1 h, 1 µM: 60 min, read-out: Remaining percentage of peptide compound, FaSSIF 60 (min); for remaining at 2 h, 1 µM: 120 min, read-out: Remaining percentage of peptide compound, FaSSIF 120 (min); for remaining at 4 h, 1 µM: 240 min, read-out: Remaining percentage of peptide compound, FaSSIF 240 (min)
How it was run: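 1 μM peptide incubated at 37° C in simulated fluid (pancreatin-SIF prepared from pancreatin in SIF concentrate). Samples quenched with acidified ethanol at 0, 60, 120 and 240 min and analysed by LC-MS/MS. Percentage remaining from peak area relative to T0 (100%).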

[6] = 50 mM phosphate buffer pH 6.5 + acetonitrile (3:1), read-out: Chemical stability (relative purity loss), Buffer pH 6.5
[7] = 50 mM phosphate buffer pH 7.4 + acetonitrile (3:1), read-out: Chemical stability (relative purity loss), Buffer pH 7.4
[8] = 50 mm hcl + acetonitrile, Buffer pH 1.1 (head; method: 50 mM HCl pH 1.2 + acetonitrile 3:1), read-out: Chemical stability (relative purity loss), Buffer pH 1.1
[9] = Buffer pH 1.1 (head; method: 50 mM HCl pH 1.2), 2 h agitation, read-out: Solubility, Buffer pH 1.1
[10] = aqueous buffer, 50 mM phosphate buffer pH 6.5, 2 h agitation, read-out: Solubility, Buffer pH 6.5
[11] = aqueous buffer, 50 mM phosphate buffer pH 7.4, 2 h agitation, read-out: Solubility, Buffer pH 7.4

Row | degraded at 24 h [1, 6] [%] | degraded at 24 h [1, 7] [%] | degraded at 24 h [1, 8] [%] | remaining at 1 h, 1 µM [2] [%] | solubility at 2 h [3, 9] [µg/mL] | solubility at 2 h [3, 10] [µg/mL] | solubility at 2 h [3, 11] [µg/mL] | remaining at 1 h, 1 µM [5] [%] | remaining at 2 h, 1 µM [5] [%] | remaining at 4 h, 1 µM [5] [%] | SMILES | IC50 [4] [nM]
1 | 0 | 0 | 3 | 99 | ≥ 970 | 850 (≈ 526 µM) | 830 (≈ 513 µM) | 96 | 95 | 90 | CC(=O)NCCCC[C@@H]1NC(=O)[C@H](Cc2c[nH]c3c(C)cccc23)NC(=O)CCCCN(C)CCCCN(C)CCCC[C@@H](C(=O)NCC(=O)N[C@@H](Cc2cccnc2)C(=O)N(C)CC(N)=O)NC(=O)C(C)(C)NC(=O)[C@H](Cc2ccc3ccccc3c2)NC(=O)[C@H](Cc2ccc(OCCN(C)C)cc2)NC(=O)C2(CCOCC2)NC1=O [compound 29] ([Trp(7-Me)]K(Ac)[Thp]Y(Me2NCH2CH2)[2Nal][Aib][Lys(Me,(CH2)4NMe(CH2)4CO)]G[3Pal][Sar]-NH2; lactam N-7) | 2.75
2 | 0 | 0 | 0 | 94 | ≥ 1200 | ≥ 1120 | ≥ 1120 | 98 | 98 | 100 | CC(=O)NCCCC[C@@H]1NC(=O)[C@H](Cc2c[nH]c3c(C)cccc23)NC(=O)CCCCCN(C)CCCCN(C)CCCC[C@@H](C(=O)N[C@@H](CC(N)=O)C(=O)N[C@@H](Cc2cccnc2)C(=O)N(C)CC(N)=O)NC(=O)[C@](C)(CCCCN(C)C)NC(=O)[C@H](Cc2ccc3ccccc3c2)NC(=O)[C@H](Cc2ccc(OCCN(C)C)cc2)NC(=O)C2(CCOCC2)NC1=O [compound 34] ([Trp(7-Me)]K(Ac)[Thp]Y(Me2NCH2CH2)[2Nal][αMeLys(Me2)][Lys(Me,(CH2)4NMe(CH2)5CO)]N[3Pal][Sar]-NH2; lactam N-7) | 1.34
3 | 0 | 0 | 6.2 | 98 | ≥ 940 | ≥ 890 | 840 (≈ 533 µM) | 88 | 87 | 82 | CN(C)CCOc1ccc(C[C@@H]2NC(=O)C3(CCOCC3)NC(=O)[C@H](CCC(N)=O)NC(=O)[C@H](Cc3cn(C)c4ccccc34)NC(=O)CCCCN(C)CCCCN(C)CCCC[C@@H](C(=O)NCC(=O)N[C@@H](Cc3cccnc3)C(=O)N(C)CC(N)=O)NC(=O)C(C)(C)NC(=O)[C@H](Cc3ccc4ccccc4c3)NC2=O)cc1 [compound 30] ([Trp(1-Me)]Q[Thp]Y(Me2NCH2CH2)[2Nal][Aib][Lys(Me,(CH2)4NMe(CH2)4CO)]G[3Pal][Sar]-NH2; lactam N-7) | 3.86
4 | 0 | 0 | 7.4 | 86 | ≥ 870 | 80 (≈ 50.8 µM) | 40 (≈ 25.4 µM) | 89 | 88 | 87 | Cc1cccc2c(C[C@@H]3NC(=O)CCCCCCCCCCNC(=O)CC[C@@H](C(=O)N[C@@H](CC(N)=O)C(=O)N[C@@H](Cc4cccnc4)C(=O)N(C)CC(N)=O)NC(=O)C(C)(C)NC(=O)[C@H](Cc4ccc5ccccc5c4)NC(=O)[C@H](Cc4ccc(OCCN(C)C)cc4)NC(=O)C(C)(C)NC(=O)[C@H](CCC(N)=O)NC3=O)c[nH]c12 [compound 35] ([Aun][Trp(7-Me)]Q[Aib]Y(Me2NCH2CH2)[2Nal][Aib]EN[3Pal][Sar]-NH2; lactam N-8) | 0.6
5 | 0 | 0.1 | 4.9 | 91 | ≥ 850 | < 10 | < 10 | 96 | 96 | 97 | Cc1cccc2c(C[C@@H]3NC(=O)CCCCCCCCCCNC(=O)CC[C@@H](C(=O)N[C@@H](CC(N)=O)C(=O)N[C@@H](Cc4cccnc4)C(=O)N(C)CC(N)=O)NC(=O)[C@](C)(CCCCN(C)C)NC(=O)[C@H](Cc4ccc5ccccc5c4)NC(=O)[C@H](Cc4ccc(OCCN(C)C)cc4)NC(=O)C4(CCOCC4)NC(=O)[C@H](CCC(N)=O)NC3=O)c[nH]c12 [compound 20] ([Aun][Trp(7-Me)]Q[Thp]Y(Me2NCH2CH2)[2Nal][αMeLys(Me2)]EN[3Pal][Sar]-NH2; lactam N-8) | 0.23
6 | 0 | 0.7 | 5.2 | 71 | ≥ 970 | ≥ 1050 | ≥ 1220 | 96 | 84 | 75 | CN(C)CCOc1ccc(C[C@@H]2NC(=O)C3(CCOCC3)NC(=O)[C@H](CCC(N)=O)NC(=O)[C@H](Cc3c[nH]c4ccccc34)NC(=O)CCCCN(C)CCCCN(C)CCCC[C@@H](C(=O)N[C@@H](CO)C(=O)N[C@@H](Cc3cccnc3)C(=O)N(C)CC(N)=O)NC(=O)C3(CCOCC3)NC(=O)[C@H](Cc3ccc4ccccc4c3)NC2=O)cc1 [compound 43] (WQ[Thp]Y(Me2NCH2CH2)[2Nal][Thp][Lys(Me,(CH2)4NMe(CH2)4CO)]S[3Pal][Sar]-NH2; lactam N-7) | 2.02
7 | 0 | 0 | 5.7 | 100 | ≥ 980 | ≥ 1070 | ≥ 1060 | 97 | 93 | 92 | CN(C)CCOc1ccc(C[C@@H]2NC(=O)C3(CCOCC3)NC(=O)[C@H](CCC(N)=O)NC(=O)[C@H](Cc3cn(C)c4ccccc34)NC(=O)CCCCN(C)CCCCN(C)CCCC[C@@H](C(=O)N[C@@H](CO)C(=O)N[C@@H](Cc3cccnc3)C(=O)N(C)CC(N)=O)NC(=O)C(C)(C)NC(=O)[C@H](Cc3ccc4ccccc4c3)NC2=O)cc1 [compound 40] ([Trp(1-Me)]Q[Thp]Y(Me2NCH2CH2)[2Nal][Aib][Lys(Me,(CH2)4NMe(CH2)4CO)]S[3Pal][Sar]-NH2; lactam N-7) | 2.26
8 | 0 | 0.5 | 3.6 | 97 | ≥ 950 | ≥ 1080 | ≥ 1120 | 96 | 93 | 84 | CC(=O)NCCCC[C@@H]1NC(=O)[C@H](Cc2c[nH]c3c(C)cccc23)NC(=O)CCCCN(C)CCCCN(C)CCCC[C@@H](C(=O)N[C@@H](CC(N)=O)C(=O)N[C@@H](Cc2cccnc2)C(=O)N(C)CC(N)=O)NC(=O)C(C)(C)NC(=O)[C@H](Cc2ccc3ccccc3c2)NC(=O)[C@H](Cc2ccc(OCCN(C)C)cc2)NC(=O)C2(CCOCC2)NC1=O [compound 32] ([Trp(7-Me)]K(Ac)[Thp]Y(Me2NCH2CH2)[2Nal][Aib][Lys(Me,(CH2)4NMe(CH2)4CO)]N[3Pal][Sar]-NH2; lactam N-7) | 0.53
